Reference: PubChem BioAssay AID1435 (PCMD, 2008)
Calls of active or inactive are those of the source. No rule for the calls is given here.

Each compound was assayed against DNA repair protein RAD51 homolog 1 (Homo sapiens) (UniProt Q06609) (assay: concentration-dependent blocking of RAD51 activity – biochemical, homologous recombination, fluorescence, dose response (AID 1435)). Settings: RAD51 homologous recombination biochemical assay.
Chain of DNA repair protein RAD51 homolog 1 (Homo sapiens) (Q06609 whole entry, looked up): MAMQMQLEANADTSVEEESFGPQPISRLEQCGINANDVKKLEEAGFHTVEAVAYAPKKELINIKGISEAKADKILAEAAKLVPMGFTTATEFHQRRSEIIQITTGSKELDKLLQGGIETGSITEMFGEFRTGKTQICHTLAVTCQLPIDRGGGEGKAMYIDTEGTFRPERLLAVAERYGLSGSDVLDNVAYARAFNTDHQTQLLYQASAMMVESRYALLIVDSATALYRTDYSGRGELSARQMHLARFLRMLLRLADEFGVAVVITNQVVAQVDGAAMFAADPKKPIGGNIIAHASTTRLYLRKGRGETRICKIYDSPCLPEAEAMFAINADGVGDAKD

Row | IC50 | SMILES
1 | 1.4 µM | COc1cccc2c1C(=O)c1c(O)c3c(c(O)c1C2=O)C[C@@](O)(C(=O)CO)C[C@@H]3O[C@H]1C[C@H](N)[C@@H](O)[C@H](C)O1
2 | > 85 µM (inactive) | CCCCCOCC1CC(C/C(C)=N/Nc2nc(-c3ccccc3)cs2)C(=O)O1 (stereo not drawn)
3 | > 85 µM (inactive) | COC(=O)/C(=C\Nc1cccc(Cl)c1C)c1ncc(C(F)(F)F)cc1Cl
